# Measured values taken from US20050239656A1, “Pyridine compounds or salts thereof and herbicides containing the same” (priority 2002, published 2005).
# Tested on: barnyardgrass
# Test: Test Example 1: foliage treatment, upland pot test
# Assay type: in vivo, Echinochloa crus-galli L.
# Settings: active ingredient 500 g/ha, observed 18th to 23rd day, 0 = non-treated, 100 = complete kill
# How it was run: (§1)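 Applied as a post-emergence foliar spray: formulated compound diluted to 500 L/ha with spreader at 0.1% (v/v). Treatment timing—rice at 1.2–2.6, wheat at 1.3–2.4, barnyardgrass at 1.3–2.8, soybean at 0.1–0.4 leaf stage. Scored visually on a 0–100% control scale after 18–23 days.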
row,Compound,Growth controlling degree (%) Barnyardgrass [%]
1,CC(C)C(c1cnccc1C(F)(F)F)N(C)C(=O)CC1CCCC1 (stereo not shown) [I-165],80

# Tested on: velvetleaf
# Test: Test Example 1: foliage treatment, upland pot test
# Assay type: in vivo, Abutilon theophrasti MEDIC.
# Settings: active ingredient 500 g/ha, observed 18th to 23rd day, 0 = non-treated, 100 = complete kill
row,Compound,Growth controlling degree (%) Velvetleaf [%]
1,CC(C)C(c1cnccc1C(F)(F)F)N(C)C(=O)CC1CCCC1 (stereo not shown) [I-165],80

# Tested on: japanese bulrush
# Test: Test Example 3: paddy pot test, application under submerged conditions
# Assay type: in vivo, Scirpus juncoides
# Settings: active ingredient 250 g/ha; submerged application at 0.5 leaf stage; visually observed 14 days after application; 0 = non-treated, 100 = complete kill
# How it was run: (§2)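 After sowing seeds and planting wapato tubers in flooded paddy soil, an aqueous dilution of the formulated compound was added to the 3–4 cm flood water at early leaf stage. Percent growth control relative to the untreated plot was assessed visually on day 14.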
row,Compound,Growth controlling degree (%) Japanese bulrush [%]
1,CC(C)C(c1cnccc1C(F)(F)F)N(C)C(=O)CC1CCCC1 (stereo not shown) [I-165],98

# Tested on: rice (var. Nihonbare)
# Test: Test Example 3: paddy pot test, transplanted rice
# Assay type: in vivo, Oryza sativa L.
# Settings: active ingredient 250 g/ha, applied 4th day after transplantation, visually observed 21st day after application, 0 = non-treated, 100 = complete kill
# How it was run: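 Rice (2-leaf stage) was transplanted 3 cm deep into puddled, leveled paddy soil under 3–4 cm flooding. On day 4 after transplanting, diluted wettable powder or emulsifiable concentrate was pipetted onto the water at a predetermined active-ingredient dose. Growth control (0 = untreated, 100 = complete kill) was scored visually 21 days later.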
row,Compound,Growth controlling degree (%) Rice [%]
1,CC(C)C(c1cnccc1C(F)(F)F)N(C)C(=O)CC1CCCC1 (stereo not shown) [I-165],10

# Tested on: barnyardgrass
# Test: Test Example 3: paddy pot test, application under submerged conditions
# Assay type: in vivo, Echinochloa crus-galli L.
# Settings: active ingredient 250 g/ha; submerged application at 0.5 leaf stage; visually observed 14 days after application; 0 = non-treated, 100 = complete kill
# How it was run: as §2
row,Compound,Growth controlling degree (%) Barnyardgrass [%]
1,CC(C)C(c1cnccc1C(F)(F)F)N(C)C(=O)CC1CCCC1 (stereo not shown) [I-165],98

# Tested on: prickly sida
# Test: Test Example 1: foliage treatment, upland pot test
# Assay type: in vivo, Sida spinosa L.
# Settings: active ingredient 500 g/ha, observed 18th to 23rd day, 0 = non-treated, 100 = complete kill
row,Compound,Growth controlling degree (%) Prickly sida [%]
1,CC(C)C(c1cnccc1C(F)(F)F)N(C)C(=O)CC1CCCC1 (stereo not shown) [I-165],80

# Tested on: rice
# Test: Test Example 1: foliage treatment, upland pot test
# Assay type: in vivo, Oryza sativa L.
# Settings: crop, active ingredient 500 g/ha, observed 18th to 23rd day, 0 = non-treated, 100 = complete kill
# How it was run: as §1
row,Compound,Growth controlling degree (%) Rice [%]
1,CC(C)C(c1cnccc1C(F)(F)F)N(C)C(=O)CC1CCCC1 (stereo not shown) [I-165],10

# Tested on: soybean
# Test: Test Example 2: soil surface treatment, upland pot test
# Assay type: in vivo, Glycine max Merr.
# Settings: active ingredient 500 g/ha, observed 20th to 28th day
# How it was run: (§3)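 Upland soil in pots of 1/170,000 ha is sown; on day 1 after sowing the formulated compound (wettable powder or emulsifiable concentrate, predetermined a.i. amount, water volume 1,500 L/ha) is applied to the soil surface with a small sprayer. Percent control is judged by eye 20–28 days later.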
row,Compound,Growth controlling degree (%) Soyabean [%]
1,CC(C)C(c1cnccc1C(F)(F)F)N(C)C(=O)CC1CCCC1 (stereo not shown) [I-165],20

# Tested on: green foxtail
# Test: Test Example 1: foliage treatment, upland pot test
# Assay type: in vivo, Setaria viridis L.
# Settings: active ingredient 500 g/ha, observed 18th to 23rd day, 0 = non-treated, 100 = complete kill
row,Compound,Growth controlling degree (%) Green foxtail [%]
1,CC(C)C(c1cnccc1C(F)(F)F)N(C)C(=O)CC1CCCC1 (stereo not shown) [I-165],70

# Tested on: prickly sida
# Test: Test Example 2: soil surface treatment, upland pot test
# Assay type: in vivo, Sida spinosa L.
# Settings: active ingredient 500 g/ha, observed 20th to 28th day
# How it was run: as §3
row,Compound,Growth controlling degree (%) Prickly sida [%]
1,CC(C)C(c1cnccc1C(F)(F)F)N(C)C(=O)CC1CCCC1 (stereo not shown) [I-165],70

# Tested on: japanese ribbon wapato
# Test: Test Example 3: paddy pot test, application under submerged conditions
# Assay type: in vivo, Sagittaria pygniaea
# Settings: active ingredient 250 g/ha; submerged application at primary leaf stage; visually observed 14 days after application; 0 = non-treated, 100 = complete kill
# How it was run: as §2
row,Compound,Growth controlling degree (%) Japanese ribbon wapato [%]
1,CC(C)C(c1cnccc1C(F)(F)F)N(C)C(=O)CC1CCCC1 (stereo not shown) [I-165],60

# Tested on: crabgrass
# Test: Test Example 2: soil surface treatment, upland pot test
# Assay type: in vivo, Digitaria sanguinalis L.
# Settings: active ingredient 500 g/ha, observed 20th to 28th day
# How it was run: as §3
row,Compound,Growth controlling degree (%) Crabgrass [%]
1,CC(C)C(c1cnccc1C(F)(F)F)N(C)C(=O)CC1CCCC1 (stereo not shown) [I-165],100

# Tested on: barnyardgrass
# Test: as above
# Assay type: in vivo, Echinochloa crus-galli L.
# Settings: active ingredient 500 g/ha, observed 20th to 28th day
# How it was run: as §3
row,Compound,Growth controlling degree (%) Barnyardgrass [%]
1,CC(C)C(c1cnccc1C(F)(F)F)N(C)C(=O)CC1CCCC1 (stereo not shown) [I-165],100

# Tested on: crabgrass
# Test: Test Example 1: foliage treatment, upland pot test
# Assay type: in vivo, Digitaria sanguinalis L.
# Settings: active ingredient 500 g/ha, observed 18th to 23rd day, 0 = non-treated, 100 = complete kill
row,Compound,Growth controlling degree (%) Crabgrass [%]
1,CC(C)C(c1cnccc1C(F)(F)F)N(C)C(=O)CC1CCCC1 (stereo not shown) [I-165],95

# Tested on: green foxtail
# Test: Test Example 2: soil surface treatment, upland pot test
# Assay type: in vivo, Setaria viridis L.
# Settings: active ingredient 500 g/ha, observed 20th to 28th day
# How it was run: as §3
row,Compound,Growth controlling degree (%) Green foxtail [%]
1,CC(C)C(c1cnccc1C(F)(F)F)N(C)C(=O)CC1CCCC1 (stereo not shown) [I-165],100

# Tested on: redroot pigweed
# Test: Test Example 1: foliage treatment, upland pot test
# Assay type: in vivo, Amaranthus retroflexus L.
# Settings: active ingredient 500 g/ha, observed 18th to 23rd day, 0 = non-treated, 100 = complete kill
row,Compound,Growth controlling degree (%) Redroot pigweed [%]
1,CC(C)C(c1cnccc1C(F)(F)F)N(C)C(=O)CC1CCCC1 (stereo not shown) [I-165],70

# Tested on: corn
# Test: Test Example 2: soil surface treatment, upland pot test
# Assay type: in vivo, Zea mays L.
# Settings: active ingredient 500 g/ha, observed 20th to 28th day
# How it was run: as §3
row,Compound,Growth controlling degree (%) Corn [%]
1,CC(C)C(c1cnccc1C(F)(F)F)N(C)C(=O)CC1CCCC1 (stereo not shown) [I-165],20

# Tested on: soybean
# Test: Test Example 1: foliage treatment, upland pot test
# Assay type: in vivo, Glycine max Merr.
# Settings: crop, active ingredient 500 g/ha, observed 18th to 23rd day, 0 = non-treated, 100 = complete kill
# How it was run: as §1
row,Compound,Growth controlling degree (%) Soybean [%]
1,CC(C)C(c1cnccc1C(F)(F)F)N(C)C(=O)CC1CCCC1 (stereo not shown) [I-165],80

# Tested on: corn
# Test: Test Example 1: foliage treatment, upland pot test
# Assay type: in vivo, Zea mays L.
# Settings: crop, active ingredient 500 g/ha, observed 18th to 23rd day, 0 = non-treated, 100 = complete kill
# How it was run: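 In this upland pot foliage test, corn plants at 2.1 to 3.2 leaf stages were sprayed by a small size sprayer. The spray was a conventionally formulated wettable powder or emulsifiable concentrate weighed to a set active ingredient amount, diluted in water at 500 L/ha, plus 0.1% (v/v) agricultural spreader. Visual assessment on days 18 to 23 gave growth controlling degree (%), where 0 equals untreated and 100 means complete kill.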
row,Compound,Growth controlling degree (%) Corn [%]
1,CC(C)C(c1cnccc1C(F)(F)F)N(C)C(=O)CC1CCCC1 (stereo not shown) [I-165],40

# Tested on: velvetleaf
# Test: Test Example 2: soil surface treatment, upland pot test
# Assay type: in vivo, Abutilon theophrasti MEDIC.
# Settings: active ingredient 500 g/ha, observed 20th to 28th day
# How it was run: as §3
row,Compound,Growth controlling degree (%) Velvetleaf [%]
1,CC(C)C(c1cnccc1C(F)(F)F)N(C)C(=O)CC1CCCC1 (stereo not shown) [I-165],50

# Tested on: rice
# Test: as above
# Assay type: in vivo, Oryza sativa L.
# Settings: active ingredient 500 g/ha, observed 20th to 28th day
# How it was run: as §3
row,Compound,Growth controlling degree (%) Rice [%]
1,CC(C)C(c1cnccc1C(F)(F)F)N(C)C(=O)CC1CCCC1 (stereo not shown) [I-165],10

# Tested on: redroot pigweed
# Test: as above
# Assay type: in vivo, Amaranthus retroflexus L.
# Settings: active ingredient 500 g/ha, observed 20th to 28th day
# How it was run: as §3
row,Compound,Growth controlling degree (%) Redroot pigweed [%]
1,CC(C)C(c1cnccc1C(F)(F)F)N(C)C(=O)CC1CCCC1 (stereo not shown) [I-165],80
